How the values were obtained:
Assay type in all cases: cell-based
Human LPA1 = biological target: T1, Human LPA1 (Homo sapiens, UniProt Q92633); assay: LPA1 calcium flux assay; settings: CHO cells expressing human LPA1, 10 nM LPA; read-out: HLPA1 Ca Flux IC50
T1 construct: the full-length cDNA for human LPA1 was obtained by PCR of the reverse transcription reaction; expressed in transfected cells
Description: A 1.1 kb cDNA encoding the human LPA1 receptor was cloned from human lung. Human lung RNA (Clontech Laboratories, Inc. USA) was reverse transcribed using the RETROscript kit (Ambion, Inc.) and the full-length cDNA for human LPA1 was obtained by PCR of the reverse transcription reaction. The nucleotide sequence of the cloned human LPA1 was determined by sequencing and confirmed to be identical to the published human LPA1 sequence (An et al. Biochem. Biophys. Res. Commun. 231:619 (1997). The cDNA was cloned into the pcDNA5/FRT expression plasmid and transfected in CHO cells using lipofectamine 2000 (Invitrogen Corp., USA). Clones stably expressing human LPA1 were selected using hygromycin and identified as cells that show Ca-influx in response to LPA.
(§1) Human LPA1 or LPA3 expressing CHO cells are seeded at 20,000-45,000 cells per well in a 96-well poly-D-lysine coated plate one or two days before the assay. Prior to the assay, the cells are washed once with PBS and then cultured in serum-free media overnight. On the day of the assay, a calcium indicator dye (Calcium 4, Molecular Devices) in assay buffer (HBSS with Ca^2+and Mg^2+ and containing 20 mM Hepes and 0.3% fatty-acid free human serum albumin) is added to each well and incubation continued for 1 hour at 37° C. 10 μl of test compounds in 2.5% DMSO are added to the cells and incubation continued at room temperature for 30 minutes. Cells are the stimulated by the addition of 10 nM LPA and intracellular Ca^2+ measured using the Flexstation 3 (Molecular Devices). IC50s are determined using Graphpad prism analysis of drug titration curves.

Human LPA3 = biological target: T2, Human LPA3 (Homo sapiens, UniProt Q9UBY5); assay: LPA3 calcium flux assay; settings: CHO cells expressing human LPA3, 10 nM LPA; read-out: HLPA3 Ca Flux IC50
T2 construct: The full-length cDNA fragment for human LPA3 was obtained by PCR from the vector; expressed in transfected cells; cDNA from the Missouri S&T cDNA Resource Center
T2 sequence (Q9UBY5 1-353): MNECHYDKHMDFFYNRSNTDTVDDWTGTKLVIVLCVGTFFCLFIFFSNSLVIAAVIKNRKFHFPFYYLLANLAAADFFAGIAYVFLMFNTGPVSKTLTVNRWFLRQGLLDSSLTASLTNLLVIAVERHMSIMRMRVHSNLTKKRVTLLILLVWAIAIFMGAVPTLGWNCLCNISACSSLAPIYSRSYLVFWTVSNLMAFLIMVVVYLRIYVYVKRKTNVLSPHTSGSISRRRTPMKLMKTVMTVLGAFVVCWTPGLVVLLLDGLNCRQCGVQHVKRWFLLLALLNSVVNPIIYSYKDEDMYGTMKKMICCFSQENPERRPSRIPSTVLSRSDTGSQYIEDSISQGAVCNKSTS
Description: A vector containing the human LPA3 receptor cDNA was obtained from the Missouri S&T cDNA Resource Center (www.cdna.org). The full-length cDNA fragment for human LPA3 was obtained by PCR from the vector. The nucleotide sequence of the cloned human LPA3 was determined by sequencing and confirmed to be identical to the published human LPA3 sequence (NCBI accession number NM_012152). The cDNA was cloned into the pcDNA5/FRT expression plasmid and transfected in CHO cells using lipofectamine 2000 (Invitrogen Corp., USA). Clones stably expressing human LPA3 were selected using hygromycin and identified as cells that show Ca-influx in response to LPA.
as §1

[1] = tested on: human A2058 melanoma cells; assay: LPA1 chemotaxis assay; settings: 100 nM LPA, read-out: inhibition of LPA-driven chemotaxis IC50
Description: Chemotaxis of the A2058 human melanoma cells was measured using the Neuroprobe ChemoTx® System plates (8 μM pore size, 5.7 mm diameter sites). The filter sites were coated with 0.001% fibronectin (Sigma) in 20 mM Hepes, pH 7.4 and allowed to dry. A2058 cells were serum-starved for 24 hours, then harvested with Cell Stripper and resuspended in DMEM containing 0.1% fatty-acid-free bovine serum albumin (BSA) to a concentration of 1×10^6/ml. Cells were mixed with an equal volume of test compound (2×) in DMEM containing 0.1% fatty-acid-free BSA and incubated at 37° C. for 15 minutes. LPA (100 nM in DMEM containing 0.1% fatty-acid-free BSA) or vehicle was added to each well of the lower chamber and 50 μl of the cell suspension/test compound mix was applied to the upper portion of the ChemoTx plate. Plates were incubated at 37° C. for three hours and then the cells removed from the upper portion by rinsing with PBS and scraping. The filter was dried then stained with HEMA 3 Staining System (Fisher Scientific). The absorbance of the filter was read at 590 nm and IC50s were determined using Symyx Assay Explorer.

T1 sequence (Q92633 whole entry): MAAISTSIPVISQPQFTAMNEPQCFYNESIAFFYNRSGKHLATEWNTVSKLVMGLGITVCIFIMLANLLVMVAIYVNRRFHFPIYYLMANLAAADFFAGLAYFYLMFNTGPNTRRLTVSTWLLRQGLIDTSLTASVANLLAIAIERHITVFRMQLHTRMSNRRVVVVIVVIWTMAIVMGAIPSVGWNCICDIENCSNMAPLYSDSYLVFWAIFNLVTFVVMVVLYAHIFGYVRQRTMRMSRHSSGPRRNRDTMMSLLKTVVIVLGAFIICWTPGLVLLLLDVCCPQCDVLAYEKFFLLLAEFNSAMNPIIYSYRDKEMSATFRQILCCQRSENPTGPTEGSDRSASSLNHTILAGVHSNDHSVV

SMILES | IC50 (Human LPA1) | IC50 (Human LPA3) | IC50 [1]
Cc1noc(-c2ccc(-c3ccc(C4(C(=O)O)CC4)cc3)cc2)c1NC(=O)OCc1ccccc1 [Compound 4, 1-[4′-(4-Benzyloxycarbonylamino-3-methyl-isoxazol-5-yl)-biphenyl-4-yl]-cyclopropanecarboxylic acid] | < 300 nM | > 10000 nM | < 100 nM
Cc1noc(-c2ccc(-c3ccc(C4(C(=O)O)CC4)cc3)cc2)c1NC(=O)O[C@H](C)c1ccccc1Cl [Compound 8, 1-(4′-{4-[(R)-1-(2-Chloro-phenyl)-ethoxycarbonylamino]-3-methyl-isoxazol-5-yl}-biphenyl-4-yl)-cyclopropanecarboxylic acid] | < 300 nM | 300 to 1000 nM | < 100 nM
Cc1ccc([C@@H](C)OC(=O)Nc2c(C)noc2-c2ccc(-c3ccc(C4(C(=O)O)CC4)cc3)cc2)cc1 [Compound 16, 1-{4′-[3-Methyl-4-((R)-1-p-tolyl-ethoxycarbonylamino)-isoxazol-5-yl]-biphenyl-4-yl}-cyclopropanecarboxylic acid] | < 300 nM | 1000 to 10000 nM | < 100 nM
Cc1cccc([C@@H](C)OC(=O)Nc2c(C)noc2-c2ccc(-c3ccc(C4(C(=O)O)CC4)cc3)cc2)c1 [Compound 17, 1-{4′-[3-Methyl-4-((R)-1-m-tolyl-ethoxycarbonylamino)-isoxazol-5-yl]-biphenyl-4-yl}-cyclopropanecarboxylic acid] | < 300 nM | 300 to 1000 nM | < 100 nM
Cc1noc(-c2ccc(-c3ccc(C4(C(=O)O)CC4)cc3)cc2)c1NC(=O)O[C@H](C)c1ccccc1C#N [Compound 19, 1-(4′-{4-[(R)-1-(2-Cyano-phenyl)-ethoxycarbonylamino]-3-methyl-isoxazol-5-yl}-biphenyl-4-yl)-cyclopropanecarboxylic acid] | < 300 nM | 1000 to 10000 nM | < 100 nM
Cc1noc(-c2ccc(-c3ccc(C4(C(=O)O)CC4)cc3)cc2)c1NC(=O)OC(C)C1=C(Cl)CCCC1 (centres unmarked) [Compound 21, 1-(4′-{4-[1-(2-Chloro-cyclohex-1-enyl)-ethoxycarbonylamino]-3-methyl-isoxazol-5-yl}-biphenyl-4-yl)-cyclopropanecarboxylic acid] | < 300 nM | < 300 nM | < 100 nM
CCc1noc(-c2ccc(-c3ccc(C4(C(=O)O)CC4)cc3)cc2)c1NC(=O)O[C@H](C)c1ccccc1 [Compound 29, 1-{4′-[3-Ethyl-4-((R)-1-phenyl-ethoxycarbonylamino)-isoxazol-5-yl]-biphenyl-4-yl}-cyclopropanecarboxylic acid] | < 300 nM | 300 to 1000 nM | < 100 nM
CCc1noc(-c2ccc(-c3ccc(C4(C(=O)O)CC4)cc3)cc2)c1NC(=O)O[C@H](C)c1cccc(C(F)(F)F)c1 [Compound 30, 1-(4′-{3-Ethyl-4-[(R)-1-(3-trifluoromethyl-phenyl)-ethoxycarbonylamino]-isoxazol-5-yl}-biphenyl-4-yl)-cyclopropanecarboxylic acid] | < 300 nM | < 300 nM | 
COc1cc(-c2ccc(C3(C(=O)O)CC3)cc2)ccc1-c1onc(C)c1NC(=O)O[C@H](C)c1cccc(C(F)(F)F)c1 [Compound 31, 1-(3′-Methoxy-4′-{3-methyl-4-[(R)-1-(3-trifluoromethyl-phenyl)-ethoxycarbonylamino]-isoxazol-5-yl}-biphenyl-4-yl)-cyclopropanecarboxylic acid] | < 300 nM | < 300 nM | 
Cc1noc(-c2ccc(-c3ccc(C4(C(=O)O)CC4)cc3)cc2)c1NC(=O)O[C@H](C)c1cc(Br)cc(Br)c1 [Compound 32, 1-(4′-{4-[(R)-1-(3,5-Dibromo-phenyl)-ethoxycarbonylamino]-3-methyl-isoxazol-5-yl}-biphenyl-4-yl)-cyclopropanecarboxylic acid] | < 300 nM | 1000 to 10000 nM | 
C[C@@H](OC(=O)Nc1cnoc1-c1ccc(-c2ccc(C3(C(=O)O)CC3)cc2)cc1)c1ccccc1 [Compound 33, 1-{4′-[4-((R)-1-Phenyl-ethoxycarbonylamino)-isoxazol-5-yl]-biphenyl-4-yl}-cyclopropanecarboxylic acid] | < 300 nM | 1000 to 10000 nM | 
Cc1noc(-c2ccc(-c3ccc(C4(C(=O)NS(C)(=O)=O)CC4)cc3)cc2)c1NC(=O)O[C@H](C)c1ccccc1 [Compound 35, {5-[4′-(1-Methanesulfonylaminocarbonyl-cyclopropyl)-biphenyl-4-yl]-3-methyl-isoxazol-4-yl}-carbamic acid (R)-1-phenyl-ethyl ester] | < 300 nM | 1000 to 10000 nM | < 100 nM
Cc1noc(-c2ccc(-c3ccc(C4(C(=O)NS(=O)(=O)c5ccccc5)CC4)cc3)cc2)c1NC(=O)O[C@H](C)c1ccccc1 [Compound 36, {5-[4′-(1-Benzenesulfonylaminocarbonyl-cyclopropyl)-biphenyl-4-yl]-3-methyl-isoxazol-4-yl}-carbamic acid (R)-1-phenyl-ethyl ester] | < 300 nM | 1000 to 10000 nM | < 100 nM
Cc1noc(-c2ccc(-c3ccc(C4(C#N)CC4)cc3)cc2)c1NC(=O)O[C@H](C)c1ccccc1 [Compound 37, {5-[4′-(1-Cyano-cyclopropyl)-biphenyl-4-yl]-3-methyl-isoxazol-4-yl}-carbamic acid (R)-1-phenyl-ethyl ester] | 1000 to 10000 nM | > 10000 nM | 
Cc1noc(-c2ccc(-c3ccc(C4(c5nc(=O)o[nH]5)CC4)cc3)cc2)c1NC(=O)O[C@H](C)c1ccccc1 [Compound 38, (3-Methyl-5-{4′-[1-(5-oxo-2,5-dihydro-[1,2,4]oxadiazol-3-yl)-cyclopropyl]-biphenyl-4-yl}-isoxazol-4-yl)-carbamic acid (R)-1-phenyl-ethyl ester] | < 300 nM | 1000 to 10000 nM | < 100 nM
Cc1noc(-c2ccc(-c3ccc(C4(c5nnn[nH]5)CC4)cc3)cc2)c1NC(=O)O[C@H](C)c1ccccc1 [Compound 39, (3-Methyl-5-{4′-[1-(1H-tetrazol-5-yl)-cyclopropyl]-biphenyl-4-yl}-isoxazol-4-yl)-carbamic acid (R)-1-phenyl-ethyl ester] | < 300 nM | 1000 to 10000 nM | < 100 nM
Cc1noc(-c2ccc(-c3ccc(C4(C(=O)NS(C)(=O)=O)CC4)cc3)cc2)c1NC(=O)O[C@H](C)c1cccc(C(F)(F)F)c1 [Compound 40, {5-[4′-(1-Methanesulfonylaminocarbonyl-cyclopropyl)-biphenyl-4-yl]-3-methyl-isoxazol-4-yl}-carbamic acid (R)-1-(3-trifluoromethyl-phenyl)-ethyl ester] | < 300 nM | 300 to 1000 nM | 
COc1cc(-c2ccc(C3(C(=O)NS(C)(=O)=O)CC3)cc2)ccc1-c1onc(C)c1NC(=O)O[C@H](C)c1cccc(C(F)(F)F)c1 [Compound 41, {5-[4′-(1-Methanesulfonylaminocarbonyl-cyclopropyl)-3-methoxy-biphenyl-4-yl]-3-methyl-isoxazol-4-yl}-carbamic acid (R)-1-(3-trifluoromethyl-phenyl)-ethyl ester] | < 300 nM | 300 to 1000 nM | 
